Measured values: patent US20190144912A1, “METHODS FOR IDENTIFYING NOVEL ANTIBIOTICS AND RELATED COMPOSITIONS” (priority 2015, published 2019)

How the values were obtained:
E. coli Lsp [1] = target: T1, E. coli Lsp (Escherichia coli, UniProt P00804, D131G/R160K); assay: biochemical; set-up: The full length E. coli Lsp clone was generated using colony PCR of E. coli K12; His-tag (pET19b leader); made in house; host or cells: E. coli BL21(DE3)pLysS
Protocol: Utilizing the purified and solubilized Lsp enzyme, we developed an in vitro high-throughput functional screening for the integral membrane protease Lsp. First, screening of the Maybridge HitFinder library (Thermo Fisher) was conducted in black polystyrene 384-well low volume plates (Greiner #788076) using a BioRAPTR reagent dispenser (Beckman Coulter). Purified Lsp was diluted to 500 nM in assay buffer (PBS, 5% glycerol, 0.5% DDM pH 7.4) and 10 µL of this stock was added into each well. Next, 100 nL of a 2 mM stock of library compounds were pinned into each well and plates were centrifuged briefly. Following incubation at room temperature for 30 minutes, 2.5 μL of 250 μM Lsp FRET substrate in 25% dimethyl sulfoxide (DMSO), 75% assay buffer was added to each well. The plates were spun down and incubated for 30 minutes at room temperature. The assay was quenched with 2.5 μL of a solution containing 500 mM zinc chloride in water, giving a final concentration of 83 mM. The concentration of Lsp, FRET substrate, and library compounds during the activity assay were 400 nM, 50 μM, and 16 μM, respectively.
Catalytic signal was defined as the full enzyme activity pinning DMSO only, and background signal was measured by adding substrate to assay buffer containing no Lsp.
We tested several fixed concentrations of BBS-20 against varying concentrations of Lsp FRET substrate to determine a mechanism of inhibition (FIG. 8).

E. coli Lsp [2] = target: T1, E. coli Lsp; settings: resynthesized compound
Protocol: Next, 50 nL of stock TSRI FL library compounds were pinned into each well to a final concentration of 8.4 μM and plates were centrifuged briefly. […] Fluorescence was measured on an EnVision pate reader (ex. 355 nm; em. 495 nm).
The 344 compounds were subjected to a dose-dependent titration assay with 10-point dose-response titrations (3-fold dilutions) in triplicate. LSP primary and pre-quench titration assays employed the same reagents, protocols, and detection systems as the secondary assays. […] Globomycin was included in the both titration assays as a control. For each test compound, percent activity was plotted against compound concentration. A four parameter equation describing a sigmoidal dose-response curve was then fitted with adjustable baseline using Assay Explorer software (Symyx Technologies Inc.). The reported IC50 values were generated from fitted curves by solving for the X-intercept value at the 50% activity level of the Y-intercept value.

Lsp = Lsp (Escherichia coli, UniProt P00804); settings: cited from earlier work
[3] = target: Lsp FRET peptide substrate Dabsyl-VTGC((R)-2,3-di(palmitoyloxy)-propyl)AKD(EDANS); assay: cell-based or functional assay
[4] = target: T2, Lsp FRET peptide substrate Dabsyl-VTGC((R)-2,3-di(palmitoyloxy)-propyl)AKD(EDANS)
T2 chain: VTGCAKD

T1 sequence (P00804 other isoform, or with tags, fused parts or gaps D131G/R160K): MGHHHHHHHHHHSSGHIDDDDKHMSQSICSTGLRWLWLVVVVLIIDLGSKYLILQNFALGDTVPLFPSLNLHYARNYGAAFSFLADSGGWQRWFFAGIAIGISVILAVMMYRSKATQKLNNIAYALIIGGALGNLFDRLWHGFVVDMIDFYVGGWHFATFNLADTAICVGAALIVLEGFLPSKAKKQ

What does the source list for `CCN(CC)CCc1cn(CC(=O)NC[C@]2(C)CCC[C@]3(C)c4ccc(C(C)C)cc4CC[C@@H]23)nn1` [BBS-20]?
IC50 (E. coli Lsp [1]): 15 ± 4 µM; identified as Lsp inhibitor in Sharpless library screen (E. coli Lsp [1]; 16 μM compound, 400 nM Lsp, 50 μM FRET substrate, triplicate): inhibitors; mode of inhibition (E. coli Lsp [1]; fixed concentrations of compound against varying concentrations of Lsp FRET substrate): noncompetitive

For `CCC(CC)c1nnc(NC(=O)c2cc(OC)c(OC)cc2[N+](=O)[O-])s1` [SR-01000270728-1], which EC50 (E. coli Lsp [2]) is on record?
Its EC50 is 2.2 µM.

With `CCCCCCC1OC(=O)CNC(=O)C(C(C)O)NC(=O)C(CO)NC(=O)C(C(C)CC)NC(=O)C(CC(C)C)N(C)C(=O)C1C` (stereo not shown) [globomycin] as the molecule, how does the mode of inhibition (Lsp) read?
The mode of inhibition was “noncompetitively”.

For “E. coli lipoprotein signal peptidase (Lsp), full length, N-terminal His-tag fusion, DDM-solubilized and purified (from UniProt P00804 1-164) (enzyme)”, which substrate inhibition (Michaelis-Menten kinetics of peptide hydrolysis, FRET) [3] is on record?
Its substrate inhibition (Michaelis-Menten kinetics of peptide hydrolysis, FRET) is greater than 100 µM.

B1: E. coli lipoprotein signal peptidase (Lsp), full length, N-terminal His-tag fusion, DDM-solubilized and purified (protein)
chain: MSQSICSTGLRWLWLVVVVLIIDLGSKYLILQNFALGDTVPLFPSLNLHYARNYGAAFSFLADSGGWQRWFFAGIAIGISVILAVMMYRSKATQKLNNIAYALIIGGALGNLFDRLWHGFVVDMIDFYVGDWHFATFNLADTAICVGAALIVLEGFLPSRAKKQ
For B1, which “KM (Michaelis-Menten kinetics of peptide hydrolysis, FRET)” value [4] is on record?
The value was “KM=5 µM”.
